From PMC9879182, “New benzothiazole hybrids as potential VEGFR-2 inhibitors: design, synthesis, anticancer evaluation, and in silico study” (Journal of Enzyme Inhibition and Medicinal Chemistry, 2023)
Read-outs that look alike come from different tables or passages of the source.

What was measured:
VEGFR-2 [1] = molecular target: T1, VEGFR-2 (Homo sapiens, UniProt P35968); details: cited from earlier work
T1 construct: VEGFR-2 enzyme assay was performed as reported[57]

[2] = test system: HCT-116 (colorectal carcinoma); assay: MTT cytotoxicity assay, HCT-116; format: cell-based; details: Homo sapiens, mean ± SD, triplicate
Method: (§1) The in vitro anticancer activity of the new benzothiazole hybrids was evaluated by performing MTT assay as in the literature[51]^,[55]^,[56].

[3] = test system: HEPG-2 (hepatocellular carcinoma); assay: MTT cytotoxicity assay, HepG-2; format: cell-based; details: Homo sapiens, HepG2, mean ± SD, triplicate
Method: as §1

MCF-7 (breast cancer) = assay: MTT cytotoxicity assay, MCF-7; format: cell-based; details: Homo sapiens, MCF7, mean ± SD, triplicate
Method: as §1

[4] = test system: WI-38 normal fibroblast cells; assay: MTT cytotoxicity against normal cells; format: cell-based; details: Homo sapiens, mean ± SD, triplicate
Method: as §1
All tested compounds were studied for their cytotoxic activity on the WI-38 normal fibroblast WI-38 cells to assess their therapeutic safety.

[5] = test system: HCT-116, HEPG-2, and MCF-7; assay: MTT cytotoxicity assay, range over the three cancer cell lines; format: cell-based, human; details: range over HCT-116, HEPG-2 and MCF-7, read-out: IC50 range towards the three cell lines
Method: as §1

VEGFR-2 [6] = molecular target: T1, VEGFR-2; assay: In vitro VEGFR-2 kinase inhibitory assay; format: biochemical; details: for inhibition at 1 µM: VEGFR-2, compound at 1 μM; for inhibition at 10 µM: VEGFR-2, compound at 10 μM; for % Inhibition 10 nm: VEGFR-2, compound at 10 nm; for % Inhibition 100 nm: VEGFR-2, compound at 100 nm; for IC50: four concentrations 10 nM–10 μM
MCF-7 cells [7] = assay: Flow cytometry cell cycle analysis (PI staining); format: cell-based, human; details: for Cell cycle distribution (%) G2-M / Cell cycle distribution (%) S / Cell cycle distribution (%) G0-G1: MCF-7, IC50 concentration, 24 h; for Cell cycle distribution (%) G2-M: control (DMSO) 10.19; for Cell cycle distribution (%) S: control (DMSO) 31.89; for Cell cycle distribution (%) G0-G1: control (DMSO) 57.92; for phase of cell cycle arrest: MCF-7, 24 h
Method: It was carried out using MCF-7 cell lines stained with PI and analysed by FACS Calibur flow cytometer as reported[51]^,[58].
The cells were treated with DMSO as a control.

MCF-7 cells [8] = assay: Annexin V-FITC/PI apoptosis assay; format: cell-based, human; details: MCF-7, 24 h; untreated control 0.59%
Method: The extent of apoptosis was evaluated on MCF-7 cells and Annexin V-FITC/PI apoptosis detection kit following the reported method[51]^,[59].
The development of apoptosis inducers is highly attractive therapeutic strategy for the identification of powerful anticancer drugs[67]^,[68].

T1 sequence (P35968 20-1356): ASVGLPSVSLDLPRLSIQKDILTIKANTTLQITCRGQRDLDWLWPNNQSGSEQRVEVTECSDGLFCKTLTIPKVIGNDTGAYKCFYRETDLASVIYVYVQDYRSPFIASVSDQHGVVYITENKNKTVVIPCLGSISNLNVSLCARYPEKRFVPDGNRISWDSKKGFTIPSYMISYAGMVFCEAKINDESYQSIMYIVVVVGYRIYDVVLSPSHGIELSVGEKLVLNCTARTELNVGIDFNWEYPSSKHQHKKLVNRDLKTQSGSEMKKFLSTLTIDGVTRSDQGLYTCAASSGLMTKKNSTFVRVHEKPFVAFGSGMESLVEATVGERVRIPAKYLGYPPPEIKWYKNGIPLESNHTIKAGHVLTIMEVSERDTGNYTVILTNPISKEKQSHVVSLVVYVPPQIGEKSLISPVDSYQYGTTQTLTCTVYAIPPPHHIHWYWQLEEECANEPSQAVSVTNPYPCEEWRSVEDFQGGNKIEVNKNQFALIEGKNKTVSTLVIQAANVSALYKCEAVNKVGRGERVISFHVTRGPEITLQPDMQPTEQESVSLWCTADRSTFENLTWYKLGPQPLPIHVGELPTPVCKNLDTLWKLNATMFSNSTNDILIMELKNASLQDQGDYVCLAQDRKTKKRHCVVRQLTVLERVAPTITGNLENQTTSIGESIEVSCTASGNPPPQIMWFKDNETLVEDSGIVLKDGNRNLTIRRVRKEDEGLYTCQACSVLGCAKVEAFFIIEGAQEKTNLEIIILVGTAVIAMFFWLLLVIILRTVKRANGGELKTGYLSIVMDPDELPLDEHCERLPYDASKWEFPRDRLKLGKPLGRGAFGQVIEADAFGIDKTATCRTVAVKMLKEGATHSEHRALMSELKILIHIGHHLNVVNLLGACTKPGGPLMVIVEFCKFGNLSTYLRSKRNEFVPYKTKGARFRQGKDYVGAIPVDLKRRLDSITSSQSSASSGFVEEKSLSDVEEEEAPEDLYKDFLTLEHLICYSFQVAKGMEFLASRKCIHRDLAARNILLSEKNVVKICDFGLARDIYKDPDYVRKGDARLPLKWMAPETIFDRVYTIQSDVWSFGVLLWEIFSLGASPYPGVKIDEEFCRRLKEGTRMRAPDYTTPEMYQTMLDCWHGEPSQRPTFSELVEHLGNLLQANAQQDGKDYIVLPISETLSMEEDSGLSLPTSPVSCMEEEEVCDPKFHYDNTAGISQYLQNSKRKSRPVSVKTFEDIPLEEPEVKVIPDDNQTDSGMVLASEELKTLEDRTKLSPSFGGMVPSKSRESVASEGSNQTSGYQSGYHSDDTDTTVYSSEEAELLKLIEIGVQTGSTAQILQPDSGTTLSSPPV

melting point	inhibition at 1 µM (VEGFR-2 [6])	inhibition at 10 µM (VEGFR-2 [6])	% Inhibition 10 nm (VEGFR-2 [6])	% Inhibition 100 nm (VEGFR-2 [6])	IC50 (VEGFR-2 [6])	SMILES	IC50 (VEGFR-2 [1])	IC50 [2]	IC50 [3]	IC50 (MCF-7 (breast cancer))	IC50 [4]	IC50 ([5]; Homo sapiens)	Cell cycle distribution (%) G2-M (MCF-7 cells [7])	Cell cycle distribution (%) S (MCF-7 cells [7])	Cell cycle distribution (%) G0-G1 (MCF-7 cells [7])	ratio of total apoptotic cells (early and late apoptotic cells) (MCF-7 cells [8])	phase of cell cycle arrest (MCF-7 cells [7])	IC50 [5]
						O=C(CN1C(=O)S/C(=C\c2ccc(F)cc2)C1=O)Nc1nc2ccccc2s1 [X]	0.19 µM											
201 to 203 °C						Cc1ccc(C=C2SC(=O)N(CC(=O)Nc3nc4ccc([N+](=O)[O-])cc4s3)C2=O)cc1 [4d, 2-(5-(4-Methylbenzylidene)-2,4-dioxothiazolidin-3-yl)-N-(6-nitrobenzo[d]thiazol-2-yl)acetamide]		26.8 ± 2.1 µM	21.1 ± 1.8 µM	15.5 ± 1.2 µM	74 ± 4.1 µM	15.5 to 26.8 µM						
						COc1ccc(C=C2SC(=O)N(CC(=O)Nc3nc4ccc([N+](=O)[O-])cc4s3)C2=O)cc1 [4b, 2-(5-(4-Methoxybenzylidene)-2,4-dioxothiazolidin-3-yl)-N-(6-nitrobenzo[d]thiazol-2-yl)acetamide]		29.9 ± 2.2 µM	34.7 ± 2.4 µM	22.3 ± 1.7 µM	77.6 ± 4.3 µM	22.3 to 34.7 µM						
	70.1%	83.5%	16.31%	37.14%	266 nM	Cc1ccc(-c2nc(SCC(=O)Nc3nc4ccc([N+](=O)[O-])cc4s3)[nH]c(=O)c2C#N)cc1 [8a]		13.9 ± 1 µM	18.1 ± 1.4 µM	10.9 ± 0.8 µM	53.1 ± 3.1 µM	10.9 to 18.1 µM	2.53%	36.11%	61.36%	30.75%	G1/S phase	
						O=C(CN1C(=O)SC(=Cc2ccc(Br)cc2)C1=O)Nc1nc2ccc([N+](=O)[O-])cc2s1 [4c, 2-(5-(4-Bromobenzylidene)-2,4-dioxothiazolidin-3-yl)-N-(6-nitrobenzo[d]thiazol-2-yl)acetamide]		47.9 ± 2.9 µM	65.5 ± 3.6 µM	50.1 ± 2.9 µM	28.9 ± 2.2 µM	47.9 to 65.5 µM						
	70.5%	88.7%	24.09%	42.84%	161 nM	COc1cc(C=C2SC(=O)N(CC(=O)Nc3nc4ccc([N+](=O)[O-])cc4s3)C2=O)cc(OC)c1OC [4e, 2-(2,4-Dioxo-5–(3,4,5-trimethoxybenzylidene)thiazolidin-3-yl)-N-(6-nitrobenzo[d]thiazol-2-yl)acetamide]		8.24 ± 0.6 µM	9.04 ± 0.8 µM	6.11 ± 0.4 µM	32.8 ± 2.3 µM	3.84 to 9.04 µM	4.99%	42.66%	52.35%	42.17%	S phase	6.11 to 9.04 µM
						CNC(=O)c1cc(Oc2ccc(NC(=O)Nc3ccc(Cl)c(C(F)(F)F)c3)cc2)ccn1 [SOR, Sorafenib, reference compound]		5.23 ± 0.3 µM	4.5 ± 0.2 µM	4.17 ± 0.2 µM	6.72 ± 0.5 µM							

SMILES	melting point	inhibition at 1 µM (VEGFR-2 [6])	inhibition at 10 µM (VEGFR-2 [6])	% Inhibition 10 nm (VEGFR-2 [6])	% Inhibition 100 nm (VEGFR-2 [6])	IC50 (VEGFR-2 [6])	IC50 (VEGFR-2 [1])	IC50 [2]	IC50 [3]	IC50 (MCF-7 (breast cancer))	IC50 [4]	IC50 ([5]; Homo sapiens)	Cell cycle distribution (%) G2-M (MCF-7 cells [7])	Cell cycle distribution (%) S (MCF-7 cells [7])	Cell cycle distribution (%) G0-G1 (MCF-7 cells [7])	ratio of total apoptotic cells (early and late apoptotic cells) (MCF-7 cells [8])	phase of cell cycle arrest (MCF-7 cells [7])	IC50 [5]
O=C(CN1C(=O)SC(=Cc2ccc(F)cc2)C1=O)Nc1nc2ccc([N+](=O)[O-])cc2s1 [4a, 2-(5-(4-Fluorobenzylidene)-2,4-dioxothiazolidin-3-yl)-N-(6-nitrobenzo[d]thiazol-2-yl)acetamide]		77.9%	92%	31.27%	45.14%	91 nM		5.61 ± 0.3 µM	7.92 ± 0.6 µM	3.84 ± 0.1 µM	45.2 ± 2.6 µM	3.84 to 9.04 µM	3.28%	49.85%	46.87%	49.71%		
